Source: US10611727B2, “1-[1-(benzoyl)-pyrrolidine-2-carbonyl]-pyrrolidine-2-carbonitrile derivatives” (UNIVERSITAT DE BARCELONA, priority 2012, dated 2020)
One block for each compound: values may come before it.

Legend:
[1] = Parallel artificial membrane permeability assay (PAMPA), porcine polar brain lipid extract; assay type: in vitro ADME; conditions: 200 μM, pH 7.4, 4 hours
Method: Parallel artificial membrane permeability assay (PAMPA) described in Kansy M et al., J. Med. Chem. 1998; […]:1007-10 was used to determine the capacity of compounds to cross the Blood-Brain Barrier (BBB) by passive diffusion (Di L et al., Eur. J. Med. Chem. 2003; 38(3):223-32). The effective permeability (Pe) of the compounds was measured at an initial concentration of 200 μM. The buffer solution was prepared from a commercial concentrated one following the manufacturer's instructions. pH was adjusted to 7.4 using a 0.5 M NaOH solution. A stock solution of new compound was prepared in DMSO and diluted with buffer solution to a final 200 μM concentration (0.5% DMSO content). The PAMPA sandwich was separated and each donor well was filled with 200 μL of the compound solution. […] After 4 hours, the contents of the acceptor and donor compartments were analyzed by HPLC: 150 μL of each well from the donor plate and 150 μL of each well from the acceptor plate were transferred to HPLC vials, injecting each sample into a reverse-phase C18 column (150 mm×4.6 mm×5 μm, 100 Å) (100 μL/injection from the acceptor wells, 10 μL/injection from the donor wells and for t0 references). […]
The effective permeability (Pe) after 4 hours was calculated using equation 2 and the percentage of transport was calculated using equation 3: […]

[2] = test system: MK-801-induced memory impairment; test: Passive avoidance task, MK-801 cognition impairment model; assay type: in vivo, rodents (mice or rats); conditions: s.c. 35 min before shock session; MK-801 i.p. 15 min later; FIG. 2
Method: The new compounds were evaluated for their efficacy as cognition enhancers in a pharmacological model for cognitive impairment. The effects of the new compounds were evaluated in untreated and MK-801-treated rodents (mice or rats). MK-801 is a non-competitive antagonist of the N-Methyl-D-aspartate (NMDA) receptor which impairs animal performance in various learning and memory paradigms (Castellano C et al., Curr. Drug Targets 2001; 2:273-83; Riedel G et al., Behav. Brain Res. 2003; 140:1-47). MK-801 also produces various effects on rodent behavior, including deficits in sensory processing, hypermotility, stereotypy and ataxia. […]
For the evaluation of the passive avoidance task, a two-compartment box with a light compartment and a dark compartment of the same dimensions was used. […] In the evaluation session, the time which the animal takes to enter the dark compartment (in seconds) was measured, as a sign of memory retention of the shock received in the dark compartment during the previous session. […] The corresponding evaluated compound was injected s.c. 35 min before the shock session, followed 15 minutes later by i.p. injection of MK-801, or PBS in the case of the control, in the same doses and volume as described for the object recognition test.

[3] = target: human prolyl oligopeptidase (Homo sapiens (Human), UniProt P48147); test: POP inhibition assay (Z-G-P-AMC substrate, fluorimetric); assay type: biochemical; conditions: 100 mM Na/K phosphate buffer pH 8.0, hPOP 20 to 60 nM
Method: hPOP expression: E. coli BL21 competent cells were transformed with pETM10 hPOP. To induce expression, a pre-culture of LB medium (50 mL) containing kanamycin (50 μg/mL) was inoculated with one colony and was grown overnight at 37° C., Next day, two cultures of LB medium (500 ml) were inoculated with the overnight culture (10 mL). The inoculated cultures were grown at 37° C. and 220 rpm until the OD595 was 1.2 (2.5-3 hours). […] The column was washed with suspension buffer until the absorbance at 280 nm returned to basal level. […] POP activity was checked in all fractions and positive ones were analyzed by SDS-PAGE and stained with Biosafe Comassie Stain G-250. […] Recombinant hPOP was quantified with the Bio-Rad Protein Assay with BSA as standard, Aliquots of the recombinant enzyme were prepared and immediately frozen with liquid nitrogen and stored at −80° C.
POP activity was determined following the method described by Toide et al (Toide K et al., J. Pharmacol. Exp. Ther. 1995; 274:1370-8), using Z-G-P-AMC (N-benzyloxycarbonyl-Gly-Pro-methylcoumarinyl-7-amide) as POP substrate. […]
After preincubation, Z-G-P-AMC (10 μl, 3 mM in 40% 1,4-dioxane) was added (3 μL 1.5 mM in 40% of 1,4-dioxane, in Conditions B), and the reaction was incubated for 1 hour at 37° C. The reaction was stopped by adding sodium acetate (150 μl, 1 M, pH 4) and the formation of AMC was measured fluorimetrically. […]

human prolyl oligopeptidase, sequence (P48147 whole entry): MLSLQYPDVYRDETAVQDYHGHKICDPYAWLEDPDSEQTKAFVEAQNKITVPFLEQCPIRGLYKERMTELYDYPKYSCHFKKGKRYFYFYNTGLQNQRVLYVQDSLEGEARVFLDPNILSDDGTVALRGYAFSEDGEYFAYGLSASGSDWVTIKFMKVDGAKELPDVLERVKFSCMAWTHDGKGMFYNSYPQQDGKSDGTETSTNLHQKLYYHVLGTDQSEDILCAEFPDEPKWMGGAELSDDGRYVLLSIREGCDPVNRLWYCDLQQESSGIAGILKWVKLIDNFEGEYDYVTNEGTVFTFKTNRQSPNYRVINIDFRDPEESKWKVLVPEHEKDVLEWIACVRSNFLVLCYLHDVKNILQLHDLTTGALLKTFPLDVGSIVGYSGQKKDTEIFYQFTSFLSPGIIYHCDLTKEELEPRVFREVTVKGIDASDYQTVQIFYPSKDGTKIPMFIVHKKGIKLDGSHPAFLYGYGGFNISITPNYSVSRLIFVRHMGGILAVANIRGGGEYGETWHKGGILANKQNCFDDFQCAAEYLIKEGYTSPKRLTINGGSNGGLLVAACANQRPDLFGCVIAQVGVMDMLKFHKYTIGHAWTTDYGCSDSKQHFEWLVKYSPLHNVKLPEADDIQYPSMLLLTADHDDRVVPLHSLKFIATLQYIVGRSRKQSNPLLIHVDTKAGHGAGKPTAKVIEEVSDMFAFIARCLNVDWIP

% T (percentage of transport) [1]: 4.3%
SMILES: COc1cc(C(=O)N2C[C@H](OC)C[C@H]2C(=O)N2CCC[C@H]2C#N)cc(OC)c1OCc1ccccc1 [Example 1, (S)-1-((2S,4R)-1-(4-(benzyloxy)-3,5-dimethoxybenzoyl)-4-methoxypyrrolidine-2-carbonyl)pyrrolidine-2-carbonitrile]

SMILES: COc1cc(C(=O)N2CC(F)(F)C[C@H]2C(=O)N2CCC[C@H]2C#N)cc(OC)c1OCc1ccccc1 [Example 4, (S)-1-((2S)-1-(4-(benzyloxy)-3,5-dimethoxybenzoyl)-4,4-difluoropyrrolidine-2-carbonyl)pyrrolidine-2-carbonitrile]
Reversal of MK-801-induced memory impairment in the passive avoidance test [2]: able to reverse MK-801-induced memory Impairment

IC50 [3]: 336 nM
SMILES: COc1cc(C(=O)N2CC(F)(F)C[C@H]2C(=O)N2CCC[C@H]2C#N)cc(OCc2ccccc2)c1OCc1ccccc1 [Example 13, (S)-1-((2S)-1-(3,4-dibenzyloxy-5-methoxybenzoyl)-4,4-difluoropyrrolidine-2-carbonyl)pyrrolidine-2-carbonitrile]
